Biological target: T1, human GPR119 (Homo sapiens, UniProt Q8TDV5)
T1 construct: expression vector for human GPR119 cDNA (Acc. No. NP_848566); expressed in transfected cells; Min-6/hGPR119
T1 sequence (Q8TDV5 1-335): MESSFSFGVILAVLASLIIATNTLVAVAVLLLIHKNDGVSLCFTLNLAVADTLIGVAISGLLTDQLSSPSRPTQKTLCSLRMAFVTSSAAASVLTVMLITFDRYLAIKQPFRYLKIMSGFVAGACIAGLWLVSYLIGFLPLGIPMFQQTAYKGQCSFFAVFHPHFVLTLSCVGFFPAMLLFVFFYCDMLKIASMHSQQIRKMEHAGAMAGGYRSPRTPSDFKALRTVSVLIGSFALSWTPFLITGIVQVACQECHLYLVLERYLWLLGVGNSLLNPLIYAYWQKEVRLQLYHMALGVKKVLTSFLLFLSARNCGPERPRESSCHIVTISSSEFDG
Assay: AlphaScreen cAMP assay in MIN6 cells stably transfected with human GPR119
Format: cell-based
Conditions: Min-6/hGPR119 cells, 45 min at room temperature
Summary of the method: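 MIN6 cells stably expressing human GPR119, seeded 10000/well and grown 24 h, were exposed to compound in pH 7.4 buffer with 0.5 mM IBMX, 0.1% BSA and 1% DMSO for 45 min at room temperature. Intracellular cAMP then measured by AlphaScreen.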

Row | SMILES | EC50 [nM]
1 | CC(C)(C)OC(=O)N1CCC(N(C(=O)c2cnc(-c3ccc(C(=O)N4CC(F)(F)C4)cc3F)nc2)C2CC2)CC1 [Example 147, 4-(Cyclopropyl-{2-[4-(3,3-difluoro-azetidine-1-carbonyl)-2-fluoro-phenyl]-pyrimidine-5-carbonyl}-amino)-piperidine-1-carboxylic acid tert-butyl ester] | 159
2 | CN(CC1CCOC1)C(=O)c1ccc(-c2ncc(C(=O)N(C3CC3)C3CCN(C(=O)OC(C)(C)C)CC3)cn2)c(F)c1 (stereo not drawn) [Example 148, 4-[Cyclopropyl-(2-{2-fluoro-4-[methyl-(tetrahydro-furan-3-ylmethyl)-carbamoyl]-phenyl}-pyrimidine-5-carbonyl)-amino]-piperidine-1-carboxylic acid tert-butyl ester] | 395
3 | COCC1CCCCN1C(=O)c1ccc(-c2ncc(C(=O)N(C3CC3)C3CCN(C(=O)OC(C)(C)C)CC3)cn2)cc1F (stereo not drawn) [Example 149, 4-(Cyclopropyl-{2-[3-fluoro-4-(2-methoxymethyl-piperidine-1-carbonyl)-phenyl]-pyrimidine-5-carbonyl}-amino)-piperidine-1-carboxylic acid tert-butyl ester] | 297
4 | CC(O)c1cccc(NC(=O)c2ccc(-c3ncc(C(=O)N(C4CC4)C4CCN(C(=O)OC(C)(C)C)CC4)cn3)cc2F)c1 (stereo not drawn) [Example 150, 4-[Cyclopropyl-(2-{3-fluoro-4-[3-(1-hydroxy-ethyl)-phenylcarbamoyl]-phenyl}-pyrimidine-5-carbonyl)-amino]-piperidine-1-carboxylic acid tert-butyl ester] | 238
5 | CC(C)(C)OC(=O)N1CCC(N(C(=O)c2cnc(-c3ccc(C(=O)NCC4CCCCO4)c(F)c3)nc2)C2CC2)CC1 (stereo not drawn) [Example 152, 4-[Cyclopropyl-(2-{3-fluoro-4-[(tetrahydro-pyran-2-ylmethyl)-carbamoyl]-phenyl}-pyrimidine-5-carbonyl)-amino]-piperidine-1-carboxylic acid tert-butyl ester] | 109
6 | CC(C)(O)CNC(=O)c1ccc(-c2ncc(C(=O)N(C3CC3)C3CCN(C(=O)OC(C)(C)C)CC3)cn2)cc1F [Example 154, 4-(Cyclopropyl-{2-[3-fluoro-4-(2-hydroxy-2-methyl-propylcarbamoyl)-phenyl]-pyrimidine-5-carbonyl}-amino)-piperidine-1-carboxylic acid tert-butyl ester] | 508
7 | CC(C)(C)OC(=O)N1CCC(N(C(=O)c2cnc(-c3ccc(C(=O)N4CCOCC4)c(F)c3)nc2)C2CC2)CC1 [Example 155, 4-(Cyclopropyl-{2-[3-fluoro-4-(morpholine-4-carbonyl)-phenyl]-pyrimidine-5-carbonyl}-amino)-piperidine-1-carboxylic acid tert-butyl ester] | 448
8 | COC(C)CN(C)C(=O)c1ccc(-c2ncc(C(=O)N(C3CC3)C3CCN(C(=O)OC(C)(C)C)CC3)cn2)c(F)c1 (stereo not drawn) [Example 157, 4-[Cyclopropyl-(2-{2-fluoro-4-[(2-methoxy-propyl)-methyl-carbamoyl]-phenyl}-pyrimidine-5-carbonyl)-amino]-piperidine-1-carboxylic acid tert-butyl ester] | 401
9 | CN(CC1CCOCC1)C(=O)c1ccc(-c2ncc(C(=O)N(C3CC3)C3CCN(C(=O)OC(C)(C)C)CC3)cn2)cc1F [Example 158, 4-[Cyclopropyl-(2-{3-fluoro-4-[methyl-(tetrahydro-pyran-4-ylmethyl)-carbamoyl]-phenyl}-pyrimidine-5-carbonyl)-amino]-piperidine-1-carboxylic acid tert-butyl ester] | 359
10 | COCCN(C)C(=O)c1ccc(-c2ncc(C(=O)N(C3CC3)C3CCN(C(=O)OC(C)(C)C)CC3)cn2)cc1F [Example 160, 4-[Cyclopropyl-(2-{3-fluoro-4-[(2-methoxy-ethyl)-methyl-carbamoyl]-phenyl}-pyrimidine-5-carbonyl)-amino]-piperidine-1-carboxylic acid tert-butyl ester] | 229
11 | CC(C)(C)OC(=O)N1CCC(N(C(=O)c2cnc(-c3ccc(C(=O)N4CCC[C@@H]4C#N)c(F)c3)nc2)C2CC2)CC1 [Example 161, 4-({2-[4-(2-Cyano-pyrrolidine-1-carbonyl)-3-fluoro-phenyl]-pyrimidine-5-carbonyl}-cyclopropyl-amino)-piperidine-1-carboxylic acid tert-butyl ester] | 278
12 | CC(C)(C)OC(=O)N1CCC(N(C(=O)c2cnc(-c3ccc(C(=O)NCc4cncnc4)c(F)c3)nc2)C2CC2)CC1 [Example 162, 4-[Cyclopropyl-(2-{3-fluoro-4-[(pyrimidin-5-ylmethyl)-carbamoyl]-phenyl}-pyrimidine-5-carbonyl)-amino]-piperidine-1-carboxylic acid tert-butyl ester] | 501
13 | CC(C)(C)OC(=O)N1CCC(N(C(=O)c2cnc(-c3ccc(C(=O)N4CCC(C#N)C4)c(F)c3)nc2)C2CC2)CC1 (stereo not drawn) [Example 163, 4-({2-[4-(3-Cyano-pyrrolidine-1-carbonyl)-3-fluoro-phenyl]-pyrimidine-5-carbonyl}-cyclopropyl-amino)-piperidine-1-carboxylic acid tert-butyl ester] | 405
14 | COC1CCN(C(=O)c2ccc(-c3ncc(C(=O)N(C4CC4)C4CCN(C(=O)OC(C)(C)C)CC4)cn3)cc2F)CC1 [Example 164, 4-(Cyclopropyl-{2-[3-fluoro-4-(4-methoxy-piperidine-1-carbonyl)-phenyl]-pyrimidine-5-carbonyl}-amino)-piperidine-1-carboxylic acid tert-butyl ester] | 221
15 | CN(Cc1cccnc1)C(=O)c1ccc(-c2ncc(C(=O)N(C3CC3)C3CCN(C(=O)OC(C)(C)C)CC3)cn2)c(F)c1 [Example 166, 4-(Cyclopropyl-{2-[2-fluoro-4-(methyl-pyridin-3-ylmethyl-carbamoyl)-phenyl]-pyrimidine-5-carbonyl}-amino)-piperidine-1-carboxylic acid tert-butyl ester] | 359
16 | CN(Cc1ccncc1)C(=O)c1ccc(-c2ncc(C(=O)N(C3CC3)C3CCN(C(=O)OC(C)(C)C)CC3)cn2)cc1 [Example 170, 4-(Cyclopropyl-{2-[4-(methyl-pyridin-4-ylmethyl-carbamoyl)-phenyl]-pyrimidine-5-carbonyl}-amino)-piperidine-1-carboxylic acid tert-butyl ester] | 208

Further compounds by falling EC50, results first:

Row | EC50 [nM] | SMILES
17 | 303 | COc1ccc(NC(=O)c2ccc(-c3ncc(C(=O)N(C4CC4)C4CCN(C(=O)OC(C)(C)C)CC4)cn3)c(F)c2)cn1 [Example 159, 4-(Cyclopropyl-{2-[2-fluoro-4-(6-methoxy-pyridin-3-ylcarbamoyl)-phenyl]-pyrimidine-5-carbonyl}-amino)-piperidine-1-carboxylic acid tert-butyl ester]
18 | 179 | CC(C)(C)OC(=O)N1CCC(N(C(=O)c2cnc(-c3ccc(C(=O)NCCn4ccc(C5CC5)n4)c(F)c3)nc2)C2CC2)CC1 [Example 169, 4-[Cyclopropyl-(2-{4-[2-(3-cyclopropyl-pyrazol-1-yl)-ethylcarbamoyl]-3-fluoro-phenyl}-pyrimidine-5-carbonyl)-amino]-piperidine-1-carboxylic acid tert-butyl ester]
19 | 173 | CC(C)(C)OC(=O)N1CCC(N(C(=O)c2cnc(-c3ccc(C(=O)NCc4cccnc4)c(F)c3)nc2)C2CC2)CC1 [Example 165, 4-[Cyclopropyl-(2-{3-fluoro-4-[(pyridin-3-ylmethyl)-carbamoyl]-phenyl}-pyrimidine-5-carbonyl)-amino]-piperidine-1-carboxylic acid tert-butyl ester]
20 | 146 | COCCNC(=O)c1ccc(-c2ncc(C(=O)N(C3CC3)C3CCN(C(=O)OC(C)(C)C)CC3)cn2)cc1F [Example 167, 4-(Cyclopropyl-{2-[3-fluoro-4-(2-methoxy-ethylcarbamoyl)-phenyl]-pyrimidine-5-carbonyl}-amino)-piperidine-1-carboxylic acid tert-butyl ester]
21 | 123 | CC(C)(C)OC(=O)N1CCC(N(C(=O)c2cnc(-c3ccc(C(=O)NCc4cocn4)c(F)c3)nc2)C2CC2)CC1 [Example 151, 4-[Cyclopropyl-(2-{3-fluoro-4-[(oxazol-4-ylmethyl)-carbamoyl]-phenyl}-pyrimidine-5-carbonyl)-amino]-piperidine-1-carboxylic acid tert-butyl ester]
22 | 114 | COCc1cccc(NC(=O)c2ccc(-c3ncc(C(=O)N(C4CC4)C4CCN(C(=O)OC(C)(C)C)CC4)cn3)cc2F)c1 [Example 156, 4-(Cyclopropyl-{2-[3-fluoro-4-(3-methoxymethyl-phenylcarbamoyl)-phenyl]-pyrimidine-5-carbonyl}-amino)-piperidine-1-carboxylic acid tert-butyl ester]
23 | 109 | CC(C)(C)OC(=O)N1CCC(N(C(=O)c2cnc(-c3ccc(C(=O)Nc4ccccc4)c(F)c3)nc2)C2CC2)CC1 [Example 153, 4-{Cyclopropyl-[2-(3-fluoro-4-phenylcarbamoyl-phenyl)-pyrimidine-5-carbonyl]-amino}-piperidine-1-carboxylic acid tert-butyl ester]
24 | 64 | CC(C)(C)OC(=O)N1CCC(N(C(=O)c2cnc(-c3ccc(C(=O)NCC4CCCO4)c(F)c3)nc2)C2CC2)CC1 (stereo not drawn) [Example 146, 4-[Cyclopropyl-(2-{3-fluoro-4-[(tetrahydro-furan-2-ylmethyl)-carbamoyl]-phenyl}-pyrimidine-5-carbonyl)-amino]-piperidine-1-carboxylic acid tert-butyl ester]

Reference: US20140045823A1 (Neurocrine Biosciences, Inc., priority 2012, published 2014)
